# Tests used:
# Format in all cases: functional
# U-251 [1] = experiment: Cytotoxicity against human U251 cells assessed as cell growth at 1 uM incubated for 48 hrs by sulforhodamine B assay relative to control; settings: U-251, 48 h, read-out: Activity
# U-251 [2] = experiment: Cytotoxicity against human U251 cells incubated for 48 hrs by sulforhodamine B assay; settings: U-251, 48 h
# BT-549 [3] = experiment: Cytotoxicity against human BT549 cells assessed as cell growth at 10 uM incubated for 48 hrs by sulforhodamine B assay relative to control; settings: BT-549, 48 h, read-out: Activity
# SNB-19 [4] = experiment: Cytotoxicity against human SNB19 cells assessed as cell growth at 0.1 uM incubated for 48 hrs by sulforhodamine B assay relative to control; settings: SNB-19, 48 h, read-out: Activity
# SNB-19 [5] = experiment: Cytotoxicity against human SNB19 cells assessed as cell growth at 100 uM incubated for 48 hrs by sulforhodamine B assay relative to control; settings: SNB-19, 48 h, read-out: Activity
# TK-10 = experiment: Cytotoxicity against human TK10 cells assessed as cell growth at 100 uM incubated for 48 hrs by sulforhodamine B assay relative to control; settings: TK-10, 48 h, read-out: Activity
# Hs-578T = experiment: Cytotoxicity against human Hs 578T cells assessed as cell growth at 0.1 uM incubated for 48 hrs by sulforhodamine B assay relative to control; settings: read-out: Activity
# SF-295 [6] = experiment: Cytotoxicity against human SF295 cells assessed as cell growth at 100 uM incubated for 48 hrs by sulforhodamine B assay relative to control; settings: SF-295, 48 h, read-out: Activity
# M14 = experiment: Cytotoxicity against human M14 cells assessed as cell growth at 10 uM incubated for 48 hrs by sulforhodamine B assay relative to control; settings: M14, 48 h, read-out: Activity
# SNB-19 [7] = experiment: Cytotoxicity against human SNB19 cells assessed as cell growth at 10 uM incubated for 48 hrs by sulforhodamine B assay relative to control; settings: SNB-19, 48 h, read-out: Activity
# U-251 [8] = experiment: Cytotoxicity against human U251 cells assessed as cell growth at 0.1 uM incubated for 48 hrs by sulforhodamine B assay relative to control; settings: U-251, 48 h, read-out: Activity
# BT-549 [9] = experiment: Cytotoxicity against human BT549 cells assessed as cell growth at 0.1 uM incubated for 48 hrs by sulforhodamine B assay relative to control; settings: BT-549, 48 h, read-out: Activity
# SF-295 [10] = experiment: Cytotoxicity against human SF295 cells assessed as cell growth at 1 uM incubated for 48 hrs by sulforhodamine B assay relative to control; settings: SF-295, 48 h, read-out: Activity
# SW-620 = experiment: Cytotoxicity against human SW620 cells assessed as cell growth at 0.1 uM incubated for 48 hrs by sulforhodamine B assay relative to control; settings: SW-620, 48 h, read-out: Activity
# SK-MEL-5 = experiment: Cytotoxicity against human SK-MEL-5 cells assessed as cell growth at 0.1 uM incubated for 48 hrs by sulforhodamine B assay relative to control; settings: SK-MEL-5, 48 h, read-out: Activity
# NCI/ADR-RES = experiment: Cytotoxicity against human NCI/ADR-RES cells assessed as cell growth at 100 uM incubated for 48 hrs by sulforhodamine B assay relative to control; settings: read-out: Activity
# K562 = experiment: Cytotoxicity against human K562 cells assessed as cell growth at 0.1 uM incubated for 48 hrs by sulforhodamine B assay relative to control; settings: K562, 48 h, read-out: Activity
# UO-31 = experiment: Cytotoxicity against human UO31 cells assessed as cell growth at 0.1 uM incubated for 48 hrs by sulforhodamine B assay relative to control; settings: UO-31, 48 h, read-out: Activity
# HOP-62 = experiment: Cytotoxicity against human HOP62 cells assessed as cell growth at 100 uM incubated for 48 hrs by sulforhodamine B assay relative to control; settings: HOP-62, 48 h, read-out: Activity
# OVCAR-4 = experiment: Cytotoxicity against human OVCAR4 cells assessed as cell growth at 0.01 uM incubated for 48 hrs by sulforhodamine B assay relative to control; settings: OVCAR-4, 48 h, read-out: Activity
# MDA-MB-435 = experiment: Cytotoxicity against human MDA-MB-435 cells incubated for 48 hrs by sulforhodamine B assay; settings: MDA-MB-435, 48 h
# U-251 [11] = experiment: Cytotoxicity against human U251 cells assessed as cell growth at 10 uM incubated for 48 hrs by sulforhodamine B assay relative to control; settings: U-251, 48 h, read-out: Activity
# A498 = experiment: Cytotoxicity against human A498 cells assessed as cell growth at 0.01 uM incubated for 48 hrs by sulforhodamine B assay relative to control; settings: A498, 48 h, read-out: Activity
# LOX IMVI = experiment: Cytotoxicity against human LOXIMVI cells incubated for 48 hrs by sulforhodamine B assay
# Malme-3M = experiment: Cytotoxicity against human MALME-3M cells assessed as cell growth at 100 uM incubated for 48 hrs by sulforhodamine B assay relative to control; settings: read-out: Activity
# SK-MEL-28 = experiment: Cytotoxicity against human SK-MEL-28 cells assessed as cell growth at 1 uM incubated for 48 hrs by sulforhodamine B assay relative to control; settings: SK-MEL-28, 48 h, read-out: Activity
# SNB-75 = experiment: Cytotoxicity against human SNB75 cells assessed as cell growth at 100 uM incubated for 48 hrs by sulforhodamine B assay relative to control; settings: SNB-75, 48 h, read-out: Activity
# RXF 393 = experiment: Cytotoxicity against human RXF393 cells incubated for 48 hrs by sulforhodamine B assay; settings: RXF 393, 48 h
# OVCAR-5 = experiment: Cytotoxicity against human OVCAR5 cells assessed as cell growth at 0.01 uM incubated for 48 hrs by sulforhodamine B assay relative to control; settings: OVCAR-5, 48 h, read-out: Activity
# SK-OV-3 = experiment: Cytotoxicity against human SKOV3 cells assessed as cell growth at 1 uM incubated for 48 hrs by sulforhodamine B assay relative to control; settings: SK-OV-3, 48 h, read-out: Activity
# 786-0 = experiment: Cytotoxicity against human 786-0 cells assessed as cell growth at 100 uM incubated for 48 hrs by sulforhodamine B assay relative to control; settings: 786-0, 48 h, read-out: Activity
# MDA-MB-231 = experiment: Cytotoxicity against human MDA-MB-231 cells assessed as cell growth at 100 uM incubated for 48 hrs by sulforhodamine B assay relative to control; settings: MDA-MB-231, 48 h, read-out: Activity
# BT-549 [12] = experiment: Cytotoxicity against human BT549 cells assessed as cell growth at 0.01 uM incubated for 48 hrs by sulforhodamine B assay relative to control; settings: BT-549, 48 h, read-out: Activity
# [13] = read-out: LC50 (the source's name)
# [14] = read-out: pLC50 (the source's name) (converted)
compound,measurement,setting,value
COc1ccc(-c2nocc2-c2cc(OC)c(OC)c(OC)c2)cc1,growth at 1 µM,U-251 [1],22%
same,GI50,U-251 [2]; read-out: GI50,0.0906 µM
same,CC50,U-251 [2]; [13],> 100 µM
same,TGI,U-251 [2]; read-out: TGI,65.8 µM
same,GI50,U-251 [2]; read-out: pGI50 (converted),0.0912 µM
same,CC50,U-251 [2]; [14],> 100 µM
same,TGI,U-251 [2]; read-out: pTGI (converted),66.1 µM
same,growth at 10 µM,BT-549 [3],9%
same,growth at 0.1 µM,SNB-19 [4],69%
same,growth at 100 µM,SNB-19 [5],8%
same,growth at 100 µM,TK-10,-10%
same,growth at 0.1 µM,Hs-578T,77%
same,growth at 100 µM,SF-295 [6],-35%
same,growth at 10 µM,M14,13%
same,growth at 10 µM,SNB-19 [7],29%
same,growth at 0.1 µM,U-251 [8],48%
same,growth at 0.1 µM,BT-549 [9],56%
same,growth at 1 µM,SF-295 [10],7%
same,growth at 0.1 µM,SW-620,32%
same,growth at 0.1 µM,SK-MEL-5,41%
same,growth at 100 µM,NCI/ADR-RES,-7%
same,growth at 0.1 µM,K562,24%
same,growth at 0.1 µM,UO-31,70%
same,growth at 100 µM,HOP-62,10%
same,growth at 0.01 µM,OVCAR-4,86%
same,GI50,MDA-MB-435; read-out: GI50,0.0239 µM
same,CC50,MDA-MB-435; [13],> 100 µM
same,TGI,MDA-MB-435; read-out: TGI,0.13 µM
same,GI50,MDA-MB-435; read-out: pGI50 (converted),0.024 µM
same,CC50,MDA-MB-435; [14],> 100 µM
same,TGI,MDA-MB-435; read-out: pTGI (converted),0.129 µM
same,growth at 10 µM,U-251 [11],19%
same,growth at 0.01 µM,A498,73%
same,GI50,LOX IMVI; read-out: GI50,0.254 µM
same,LC50 (concentration killing 50% of cells),LOX IMVI; read-out: LC50,> 100 µM
same,TGI,LOX IMVI; read-out: TGI,55.5 µM
same,GI50,LOX IMVI; read-out: pGI50 (converted),0.257 µM
same,LC50 (concentration killing 50% of cells),LOX IMVI; read-out: pLC50 (converted),> 100 µM
same,TGI,LOX IMVI; read-out: pTGI (converted),55 µM
same,growth at 100 µM,Malme-3M,-31%
same,growth at 1 µM,SK-MEL-28,58%
same,growth at 100 µM,SNB-75,9%
same,GI50,RXF 393; read-out: GI50,0.243 µM
same,CC50,RXF 393; [13],> 100 µM
same,GI50,RXF 393; read-out: pGI50 (converted),0.245 µM
same,CC50,RXF 393; [14],> 100 µM
same,growth at 0.01 µM,OVCAR-5,89%
same,growth at 1 µM,SK-OV-3,38%
same,growth at 100 µM,786-0,-17%
same,growth at 100 µM,MDA-MB-231,-15%
same,growth at 0.01 µM,BT-549 [12],86%

# Reference: ChEMBL document CHEMBL4145521, “Regioselective synthesis of 3,4-diaryl-5-unsubstituted isoxazoles, analogues of natural cytostatic combretastatin A4” (Eur J Med Chem, 2018)
